The results in this text go back to PMC10847966 (Nature chemical biology, 2023).

SMILES strings stand for the structures.

Assay [1] has as its target MthK (Methanothermobacter thermautotrophicus, UniProt O27564, A88F). In words: single-particle cryo-EM structure. In kind it is binding.
For assay [2], the target named is MthK (Methanothermobacter thermautotrophicus, UniProt O27564, V91F). In words: stopped-flow Tl+ flux assay in liposomes. In kind it is biochemical.
Assay [3] has as its target MthK (Methanothermobacter thermautotrophicus, UniProt O27564, A90L). In words: stopped-flow Tl+ flux assay in liposomes. In kind it is biochemical.

Regarding `CCCCC[N+](CCCCC)(CCCCC)CCCCC` [TPeA], in assay [1], the “single-particle cryo-EM structure” value was “Processing workflow for A88F-TPeA dataset, TPeA densities in the maps with C4 symmetry (mesh), TPeA molecule (stick)”. The IC50 in assay [2] came out at 2.05 µM; in assay [3] it was 9.7 µM.
